Reference: patent US7282507B2, “Indole derivatives as selective androgen receptor modulators (SARMS)” (Janssen Pharmaceutica N.V., priority 2004, dated 2007)
Where “and” joins values, the source holds several entries; their conditions need not be identical. Equal entries are not always repeated.

What was measured:
[1] = biological target: T1, androgen receptor (AdEasy+rAR, COS-7 cells) (Rattus norvegicus, UniProt P15207); assay: COS-7 Whole-Cell Androgen Receptor Binding Assay, Adenovirus Transduction; details: for IC50: read-out: IC50 (nM), COS Binding
T1 construct: expressed in transfected cells; host or cells: COS-7 cells transduced with adenovirus AdEasy+rAR
T1 sequence (P15207 1-902): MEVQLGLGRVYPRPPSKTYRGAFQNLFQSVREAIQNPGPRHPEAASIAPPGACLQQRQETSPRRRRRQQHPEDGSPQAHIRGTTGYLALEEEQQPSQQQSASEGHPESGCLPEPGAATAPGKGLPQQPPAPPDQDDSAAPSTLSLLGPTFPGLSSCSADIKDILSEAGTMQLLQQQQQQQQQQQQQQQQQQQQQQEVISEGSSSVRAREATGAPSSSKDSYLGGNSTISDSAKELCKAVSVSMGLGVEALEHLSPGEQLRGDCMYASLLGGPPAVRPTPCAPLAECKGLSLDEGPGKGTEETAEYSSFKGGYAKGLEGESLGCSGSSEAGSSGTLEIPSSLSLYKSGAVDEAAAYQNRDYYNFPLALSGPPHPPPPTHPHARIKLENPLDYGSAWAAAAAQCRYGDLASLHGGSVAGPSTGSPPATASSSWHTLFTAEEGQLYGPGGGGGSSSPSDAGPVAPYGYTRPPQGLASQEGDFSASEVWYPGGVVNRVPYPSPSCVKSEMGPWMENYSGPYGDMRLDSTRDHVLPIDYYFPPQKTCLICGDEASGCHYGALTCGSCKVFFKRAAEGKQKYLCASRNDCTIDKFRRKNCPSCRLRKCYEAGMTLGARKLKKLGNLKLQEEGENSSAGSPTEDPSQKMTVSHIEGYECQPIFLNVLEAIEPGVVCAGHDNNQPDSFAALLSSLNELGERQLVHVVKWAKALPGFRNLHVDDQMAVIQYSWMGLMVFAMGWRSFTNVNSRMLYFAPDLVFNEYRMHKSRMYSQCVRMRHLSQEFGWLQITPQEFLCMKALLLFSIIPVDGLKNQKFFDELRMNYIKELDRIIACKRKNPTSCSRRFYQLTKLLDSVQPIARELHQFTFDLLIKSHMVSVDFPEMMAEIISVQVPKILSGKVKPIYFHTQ
Outline: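 COS-7 cells in phenol red-free DMEM/F12 with 10% charcoal-treated FBS were transduced with AdEasy+rAR adenovirus (moi 1:50 per well), exposed to test compound in duplicate and incubated for 48 h at 37° C. Cells were then lysed in 0.5% Triton X-100 and bound radioactivity counted by scintillation.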

[2] = biological target: T2, androgen receptor (AdEasy+rAR, L929 cells) (Rattus norvegicus, UniProt P15207); assay: L929 Androgen Receptor Functional Assay, Adenovirus Transduction; type: cell-based; details: for inhibition at 3 µM: L929, antagonist testing with R1881, 3000 nM
T2 construct: expressed in transfected cells; host or cells: L929 cells transduced with adenovirus AdEasy+rAR
T2 sequence (P15207 1-902): T1 sequence (P15207 1-902)
Outline: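 L929 cells in phenol red-free, charcoal-stripped serum medium transduced with AdEasy+rAR (moi 1:500) and exposed 48 h at 37 °C to compound alone (agonist mode) or with R1881 (antagonist mode; 2.5 nM as the 2.5× dilution).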

| Compound | inhibition at 3 µM ([1]; concentration of 3000 nM) | IC50 [1] | inhibition at 3 µM [2] | % Activity, L929 androgen receptor functional assay ([2]; agonist testing, 3000 nM) | % Inhibition, COS Binding ([1]; concentration of 3000 nM, 3 µM) | EC50 ([2]; agonist testing) | % Activity, L929 androgen receptor functional assay ([2]; agonist testing, 3000 nM, 3 µM) | % Activity, L929 androgen receptor functional assay ([2]; agonist testing, @ 8000 nM) | IC50 ([2]; antagonist testing with R1881) | % Inhibition, L929 androgen receptor functional assay ([2]; antagonist testing with R1881, 3000 nM, 3 µM) |
| --- | --- | --- | --- | --- | --- | --- | --- | --- | --- | --- |
| CC(C)SCC(C)(O)c1cc2cc([N+](=O)[O-])c(C(F)(F)F)cc2[nH]1 (stereo not shown) [Compound 164] | 68% | > 1000 nM | 71% | 2% | – | – | – | – | – | – |
| CCCSCC(C)(O)c1cc2cc([N+](=O)[O-])c(C(F)(F)F)cc2[nH]1 (stereo not shown) [Compound 168] | 60% | > 3000 nM | 26% | 3% | – | – | – | – | – | – |
| CCSCC(O)(CC)c1cc2cc([N+](=O)[O-])c(C(F)(F)F)cc2[nH]1 (stereo not shown) [Compound 169] | 90% | 48 nM | 98% | 2% | – | – | – | – | – | – |
| CC(C)CSCC(C)(O)c1cc2cc([N+](=O)[O-])c(C(F)(F)F)cc2[nH]1 (stereo not shown) [Compound 170] | 67% | > 3000 nM | 67% | 2% | – | – | – | – | – | – |
| CC(O)(CSCC(F)(F)F)c1cc2cc([N+](=O)[O-])c(C(F)(F)F)cc2[nH]1 (stereo not shown) [Compound 171] | 92% | 145 nM | – | – | 94% | > 8000 nM | 11% | −1 @ 8000 nM % | 366 nM | 101% and 70% |
| CC(O)(CSC1CCCC1)c1cc2cc([N+](=O)[O-])c(C(F)(F)F)cc2[nH]1 (stereo not shown) [Compound 173] | 17% | > 3000 nM | 40% | 2% | – | – | – | – | – | – |
| CCC(O)(CS(=O)(=O)CC)c1cc2cc([N+](=O)[O-])c(C(F)(F)F)cc2[nH]1 (stereo not shown) [Compound 176] | 75% | – | 81% | 3% | – | – | – | – | – | – |
